According to patent US20240132477A1, “Benzimidazole Derivatives and Their Use As Inhibitors of ITK For The Treatment of Skin Disease” (PFIZER INC., priority 2020, published 2024):
Read-outs that look alike come from different tables or passages of the source.

Columns and labels:
[1] = biological target: IL-2-Inducible T-Cell Kinase (ITK) (Homo sapiens (Human), UniProt Q08881); assay: ITK enzyme assay; format: biochemical; details: geometric mean of count n; ITK FL enzyme, BTK peptide substrate
Procedure: IL-2-Inducible T-Cell Kinase (ITK) Activity, IC50 (uM)
ITK activity was determined by measuring the effect of a test compound in an ITK enzyme assay.
1.0 M HEPES Buffer pH 7.5 solution was prepared as follows: 238.3 g HEPES free acid (Sigma) and 800 mL of water were combined, and the mixture was stirred until complete dissolution. The pH was adjusted to 7.5 via titration with 5N NaOH and the volume adjusted to 1000 mL. The solution was filtered and sterilized.
ITK assay buffer was prepared as follows: 50 mL of HPLC-grade water was treated with 2 mL of 1.0 M HEPES Buffer, 500 μL of 2% Gelatin (Sigma), 1.0 mL of aqueous MgCl2 solution (1.0 M), and 1.0 mL of aqueous glutathione solution (0.5 M), and the solution was mixed. The solution was brought to 99 mL in a graduated cylinder by addition of water and sterilized through a 0.2 μm filter. 0.1 mL of Brij-35™ Surfact-AmpS™ Detergent Solution (10% w/v aqueous solution, ThermoFisher) and 1.0 mL of ATP (Teknova, 100 mM) were added and the solution was mixed.
Preparation of 1.33×ITK enzyme solution was as follows: 49.99 mL of ITK assay buffer was treated with 4.1 μL of ITK enzyme (ITK FL (N-Flag and C-His tagged, ˜72 kDa) Lake Pharma, 0.25 mg/ml in a buffer containing 25 mM Tris pH 7.8, 150 mM NaCl, 10% glycerol and 2 mM TCEP) and the mixture was gently agitated. The resulting solution was stored on ice. 30 Minutes prior to use, the enzyme solution was removed from ice and equilibrated to RT by incubation in a RT water bath.
Preparation of 4×ITK substrate solution was as follows: 50 mL of ITK assay buffer was treated with 100 μL of BTK peptide (China Peptide Company, 2 mM stock solution in DMSO). The tube was capped, mixed by gently inverting the tube, and then stored on ice. 30 Minutes prior to use, the substrate solution was removed from ice and equilibrated to RT by incubation in a RT water bath.
At the time of assay, 7.5 μL of the 1.33×ITK enzyme solution was added to plate wells containing 0.1 μL of varying concentrations of test compound in DMSO. The plate was incubated 30 min at RT. The plate wells were each treated with 2.5 uL of the 4×ITK substrate solution and the plate was sealed (TopSeal™, Perkin Elmer). The plate was spun at 1000 rpm for 30 sec and then incubated for 60 min at RT. The seal was removed, and each well was treated with 10 μL of Stop/Detect Buffer (20 mM HEPES pH 7.5, 0.01% gelatin, 1 nM LANCE PT66 (Perkin Elmer), 16.5 μg/ml Surelight APC (Perkin Elmer), 10 mM EDTA, 250 mM NaCl). The plate was again covered and was spun at 1000 rpm for 30 seconds. The plate was allowed to incubate overnight at RT and in a closed carrier to reduce dehydration. The seal was removed, and the fluorescence was read with a plate reader with […]. The concentrations and resulting effect values for the tested compound were plotted and the concentration of compound required for 50% effect (IC50) was determined with the four-parameter logistic dose response equation.

[2] = test system: IL-2 in supernatants from activated CD4+ human T-cells; assay: IL-2 inhibition in supernatants from activated CD4+ human T-cells (cisbio HTRF); format: cell-based; details: T-cell, read-out: IL-2 IC50
Procedure: IL-2-Inhibition Activity, IC50 (uM)
IL-2 inhibition activity in supernatants from activated CD4+ human T-cells was determined by measuring the effect of a test compound on the activity using the cisbio HTRF™ technology.
Human CD4+ T cells were activated with CD3/CD28 for 3 days and expanded for an additional 4-6 days (7 to 9 days total). On day 0, frozen CD4+ T cells were thawed, treated with CD3/CD28 Dynabeads, and incubated at 37° C./5% CO2. On day 3, the beads were removed, and the cells were diluted to 5×10^5 cells/cm^2, placed in G-Rex10 flask, and incubated at 37° C./5% CO2. On day 7 to day 9 the cells were removed from the G-Rex flasks, counted and diluted back to 1×10^6 cells/ml in standard tissue culture flask.
The expanded CD4+ T-cells were centrifuged at 300×g for 10 minutes and resuspended to 0.5 million cells per ml (30,000 cells/well). 60 μl of CD4+ T cells were added per well to a 384 well plate containing 0.1 μL of varying concentrations of test compound in DMSO. The plates were incubated for 15 min at 37° C./5% CO2. 20 μl of diluted ImmunoCult™ (STEMCELL Technologies, 1:12.5 in T cell assay media) were added to all wells of the plate (1:50 final assay concentration). The plates were incubated for an additional 20 to 24 hrs at 37° C./5% CO2. The plates were centrifuged at 300×g for 10 minutes. 16 μL of supernatant was removed and combined with 4 μl of IL-2 HTRF Abs. (cisbio kit). Plates were incubated for 3 hours at RT and read with an EnVision plate reader at 665 nm and 615 nm wavelengths. The concentrations and resulting effect values for the tested compound were plotted and the concentration of compound required for 50% effect (IC50) was determined with the four-parameter logistic dose response equation.

[3] = biological target: Tropomyosin Receptor Kinase A (TRKA, NTRK1 enzyme) (Homo sapiens (Human), UniProt P04629); assay: TRKA (NTRK1) ThermoFisher Z'-LYTE assay; format: biochemical; details: read-out: TRKA % inhibition
Procedure: Tropomyosin Receptor Kinase a (TRKA) Activity, % Inhibition
TRKA, also known as neurotrophic tyrosine kinase receptor type 1 (NTKR1) activity was determined by measuring the effect of a test compound on the activity against the NTRK1 enzyme using the ThermoFisher Z′-LYTE Assay fluorescence-based coupled enzyme format (www.thermofisher.com/selectscreen). Test compounds were screened at a fixed concentration of 1 uM and the % inhibition was determined compared to controls at a fixed ATP concentration of 1 mM. The resulting effect value for the tested compound was compared to the assay controls to determine the % inhibition (%). % Inhibition (%) values for compounds of the invention are presented in the Table that follows.

[4] = geometric mean of count n, activated CD4+ human T-cells, 20 to 24 hrs
[5] = test compound 1 uM, ATP 1 mM, arithmetic mean of count n

Chain of Tropomyosin Receptor Kinase A (TRKA, NTRK1 enzyme) (P04629 33-796): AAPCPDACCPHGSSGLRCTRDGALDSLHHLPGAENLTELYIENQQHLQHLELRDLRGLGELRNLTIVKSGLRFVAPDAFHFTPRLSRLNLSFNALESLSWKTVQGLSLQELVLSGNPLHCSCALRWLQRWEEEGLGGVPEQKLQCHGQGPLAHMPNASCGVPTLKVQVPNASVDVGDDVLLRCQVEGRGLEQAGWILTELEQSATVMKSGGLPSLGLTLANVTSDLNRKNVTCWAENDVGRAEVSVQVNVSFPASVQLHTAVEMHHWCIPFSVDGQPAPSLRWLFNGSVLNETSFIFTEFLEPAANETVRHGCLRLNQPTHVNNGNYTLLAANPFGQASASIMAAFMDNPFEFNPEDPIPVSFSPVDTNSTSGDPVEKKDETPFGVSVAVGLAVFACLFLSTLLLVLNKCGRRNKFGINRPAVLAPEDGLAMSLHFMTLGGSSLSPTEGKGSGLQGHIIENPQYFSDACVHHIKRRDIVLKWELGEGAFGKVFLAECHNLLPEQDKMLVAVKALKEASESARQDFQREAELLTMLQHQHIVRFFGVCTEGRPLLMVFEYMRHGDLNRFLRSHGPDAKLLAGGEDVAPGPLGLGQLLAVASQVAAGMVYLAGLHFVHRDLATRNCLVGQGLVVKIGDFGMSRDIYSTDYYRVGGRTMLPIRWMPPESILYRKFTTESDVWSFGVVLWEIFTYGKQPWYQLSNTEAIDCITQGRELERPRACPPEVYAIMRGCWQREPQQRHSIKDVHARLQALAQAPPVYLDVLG
Chain of IL-2-Inducible T-Cell Kinase (ITK) (Q08881 whole entry): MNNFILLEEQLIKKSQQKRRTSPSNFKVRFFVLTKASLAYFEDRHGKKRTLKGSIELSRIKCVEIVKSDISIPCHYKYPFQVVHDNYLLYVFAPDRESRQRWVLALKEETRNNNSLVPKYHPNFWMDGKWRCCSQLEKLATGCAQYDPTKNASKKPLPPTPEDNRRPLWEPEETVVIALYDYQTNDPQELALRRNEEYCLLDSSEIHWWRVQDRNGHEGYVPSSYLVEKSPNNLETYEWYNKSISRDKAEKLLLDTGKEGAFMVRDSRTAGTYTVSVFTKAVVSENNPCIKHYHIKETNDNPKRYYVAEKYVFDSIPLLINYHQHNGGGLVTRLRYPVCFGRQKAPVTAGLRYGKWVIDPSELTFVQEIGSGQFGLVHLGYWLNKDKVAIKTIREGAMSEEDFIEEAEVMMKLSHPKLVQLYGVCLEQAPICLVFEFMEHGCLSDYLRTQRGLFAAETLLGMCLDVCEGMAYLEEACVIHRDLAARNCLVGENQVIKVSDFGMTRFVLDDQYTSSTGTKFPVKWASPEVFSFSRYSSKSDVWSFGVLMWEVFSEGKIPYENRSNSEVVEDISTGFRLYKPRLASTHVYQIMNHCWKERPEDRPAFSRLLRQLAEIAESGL

IC50 [1] [nM]	IC50 [2, 4] [nM]	inhibition at 1 µM [3, 5] [%]	SMILES	IC50 ([2]; Homo sapiens) [nM]	inhibition at 1 µM [3] [%]
4	15	95	CC(=O)N(C)c1ccc2[nH]c(-c3n[nH]c4c3C[C@@H]3C(F)(F)[C@]3(C)C4)nc2c1 [Example 2, N-(2-((4aS,5aR)-5,5-difluoro-5a-methyl-1,4,4a,5,5a,6-hexahydrocyclopropa[f]indazol-3-yl)-1H-benzo[d]imidazol-5-yl)-N-methylacetamide]		
71	391	105	CC(=O)Nc1cc2nc(-c3n[nH]c4c3C[C@@H]3C[C@]3(C)C4)[nH]c2cc1C [Example 4, N-(6-methyl-2-((4aS,5aR)-5a-methyl-1,4,4a,5,5a,6-hexahydrocyclopropa[f]indazol-3-yl)-1H-benzo[d]imidazol-5-yl)acetamide]		
37	173	103	COc1cc2[nH]c(-c3n[nH]c4c3C[C@@H]3C[C@]3(C)C4)nc2cc1N(C)C(C)=O [Example 6, N-(6-methoxy-2-((4aS,5aR)-5a-methyl-1,4,4a,5,5a,6-hexahydrocyclopropa[f]indazol-3-yl)-1H-benzo[d]imidazol-5-yl)-N-methylacetamide]		
13	595	105	COCCOc1cc2[nH]c(-c3n[nH]c4c3C[C@@H]3C[C@]3(C)C4)nc2cc1N(C)C(C)=O [Example 7, N-(6-(2-methoxyethoxy)-2-((4aS,5aR)-5a-methyl-1,4,4a,5,5a,6-hexahydrocyclopropa[f]indazol-3-yl)-1H-benzo[d]imidazol-5-yl)-N-methylacetamide]		
10	81	100	CC(=O)N(C)c1cc2nc(-c3n[nH]c4c3C[C@@H]3C[C@]3(C)C4)[nH]c2cc1C [Example 17, N-Methyl-N-(6-methyl-2-((4aS,5aR)-5a-methyl-1,4,4a,5,5a,6-hexahydrocyclopropa[f]indazol-3-yl)-1H-benzo[d]imidazol-5-yl)acetamide]		
10	89	97	Cc1cc2[nH]c(-c3n[nH]c4c3C[C@@H]3C[C@]3(C)C4)nc2cc1N(C)C(=O)[C@H]1CCCO1 [Example 23, (R)-N-Methyl-N-(5-methyl-2-((4aS,5aR)-5a-methyl-1,4,4a,5,5a,6-hexahydrocyclopropa[f]indazol-3-yl)-1H-benzo[d]imidazol-6-yl)tetrahydrofuran-2-carboxamide]		
6	61	97	Cc1cc2[nH]c(-c3n[nH]c4c3C[C@@H]3C[C@]3(C)C4)nc2cc1N(C)C(=O)[C@@H]1CCOC1 [Example 29, (R)-N-Methyl-N-(6-methyl-2-((4aS,5aR)-5a-methyl-1,4,4a,5,5a,6-hexahydrocyclopropa[f]indazol-3-yl)-1H-benzo[d]imidazol-5-yl)tetrahydrofuran-3-carboxamide]		
3	69	98	Cc1cc2[nH]c(-c3n[nH]c4c3C[C@@H]3C[C@]3(C)C4)nc2cc1N(C)C(=O)CN1CCCC1=O [Example 31, N-Methyl-N-(6-methyl-2-((4aS,5aR)-5a-methyl-1,4,4a,5,5a,6-hexahydrocyclopropa[f]indazol-3-yl)-1H-benzo[d]imidazol-5-yl)-2-(2-oxopyrrolidin-1-yl)acetamide]		
5	62	97	CC(=O)N(CC(=O)N(C)c1cc2nc(-c3n[nH]c4c3C[C@@H]3C[C@]3(C)C4)[nH]c2cc1C)C(C)C [Example 35, 2-(N-Isopropylacetamido)-N-methyl-N-(6-methyl-2-((4aS,5aR)-5a-methyl-1,4,4a,5,5a,6-hexahydrocyclopropa[f]indazol-3-yl)-1H-benzo[d]imidazol-5-yl)acetamide]		
7	74	97	CCOCC(=O)N(C)c1cc2nc(-c3n[nH]c4c3C[C@@H]3C[C@]3(C)C4)[nH]c2cc1C [Example 38, 2-Ethoxy-N-methyl-N-(6-methyl-2-((4aS,5aR)-5a-methyl-1,4,4a,5,5a,6-hexahydrocyclopropa[f]indazol-3-yl)-1H-benzo[d]imidazol-5-yl)acetamide]		
74	268		COC(C)(C)C(=O)N(C)c1cc2nc(-c3n[nH]c4c3C[C@@H]3C[C@]3(C)C4)[nH]c2cc1C [Example 39, 2-Methoxy-N,2-dimethyl-N-(6-methyl-2-((4aS,5aR)-5a-methyl-1,4,4a,5,5a,6-hexahydrocyclopropa[f]indazol-3-yl)-1H-benzo[d]imidazol-5-yl)propenamide]		
13	114		Cc1cc2[nH]c(-c3n[nH]c4c3C[C@@H]3C[C@]3(C)C4)nc2cc1N(C)C(=O)[C@H]1CCOC1 [Example 40, (S)-N-Methyl-N-(6-methyl-2-((4aS,5aR)-5a-methyl-1,4,4a,5,5a,6-hexahydrocyclopropa[f]indazol-3-yl)-1H-benzo[d]imidazol-5-yl)tetrahydrofuran-3-carboxamide]		

SMILES	IC50 [1] [nM]	IC50 [2, 4] [nM]	inhibition at 1 µM [3, 5] [%]	IC50 ([2]; Homo sapiens) [nM]	inhibition at 1 µM [3] [%]
Cc1cc2[nH]c(-c3n[nH]c4c3C[C@@H]3C[C@]3(C)C4)nc2cc1N(C)C(=O)CN(C)C(=O)C(C)C [Example 30, N-Methyl-N-(2-(methyl(6-methyl-2-((4aS,5aR)-5a-methyl-1,4,4a,5,5a,6-hexahydrocyclopropa[f]indazol-3-yl)-1H-benzo[d]imidazol-5-yl)amino)-2-oxoethyl)isobutyramide]	3			51	98
